Experiments:
[1] = test system: hospital-acquired methicillin-resistant S. aureus (HA-MRSA; ATCC 33591); experiment: microbe, parasite or virus in culture; format: cell-based
[2] = test system: Pseudomonas aeruginosa (PAO1); experiment: microbe, parasite or virus in culture; format: cell-based
[3] = test system: Escherichia coli (MC4100); experiment: microbe, parasite or virus in culture; format: cell-based
[4] = test system: community-acquired methicillin-resistant S. aureus (CA-MRSA; USA 300-0114); experiment: microbe, parasite or virus in culture; format: cell-based
[5] = test system: red blood cell (RBC)
[6] = test system: methicillin-susceptible S. aureus (SH1000); experiment: microbe, parasite or virus in culture; format: cell-based
[7] = test system: Enterococcus faecalis (OG1RF); experiment: microbe, parasite or virus in culture; format: cell-based

| Structure (SMILES) | Minimum Inhibitory Concentration HA-MRSA [1] | Minimum Inhibitory Concentration Pa [2] | Minimum Inhibitory Concentration E. coli [3] | Minimum Inhibitory Concentration CA-MRSA [4] | Lys20 [5] | Minimum Inhibitory Concentration MSSA [6] | Minimum Inhibitory Concentration E. faecalis [7] |
| --- | --- | --- | --- | --- | --- | --- | --- |
| CCCCCCCCCC[P+](CC[P+](CCCCCCCCCC)(c1ccccc1)c1ccccc1)(CC[P+](CCCCCCCCCC)(c1ccccc1)c1ccccc1)CC[P+](CCCCCCCCCC)(c1ccccc1)c1ccccc1 [4P-10,10,10,10, ((decylphosphoniotriyl)tris(ethane-2,1-diyl))tris(decyldiphenylphosphonium)] | 32 µM | >250 µM | 250 µM | 32 µM | 8 µM | 16 µM | 250 µM |
| CCCCCCCCCCC[P+](CC[P+](CCCCCCCCCCC)(c1ccccc1)c1ccccc1)(CC[P+](CCCCCCCCCCC)(c1ccccc1)c1ccccc1)CC[P+](CCCCCCCCCCC)(c1ccccc1)c1ccccc1 [4P-11,11,11,11, ((undecylphosphoniotriyl)tris(ethane-2,1-diyl))tris(diphenyl(undecyl)phosphonium)] | 125 µM | >250 µM | 125 µM | 32 µM | 4 µM | 16 µM | 125 µM |
| CCCCCCCCCCCC[P+](CC[P+](CCCCCCCCCCCC)(c1ccccc1)c1ccccc1)(CC[P+](CCCCCCCCCCCC)(c1ccccc1)c1ccccc1)CC[P+](CCCCCCCCCCCC)(c1ccccc1)c1ccccc1 [4P-12,12,12,12, ((dodecylphosphoniotriyl)tris(ethane-2,1-diyl))tris(dodecyldiphenylphosphonium)] | 63 µM | >250 µM | 250 µM | 16 µM | 4 µM | 16 µM | 250 µM |
| CCCCCCCCCCCCCCCC[n+]1ccccc1 [CPC, cetylpyridinium chloride, reference compound] |  |  |  |  | 4 µM |  |  |
| CCCCCCCC[P+](CC[P+](CCCCCCCC)(c1ccccc1)c1ccccc1)(CC[P+](CCCCCCCC)(c1ccccc1)c1ccccc1)c1ccccc1 [P2P2P-8,8,8, ((octyl(phenyl)phosphoniodiyl)bis(ethane-2,1-diyl))bis(octyldiphenylphosphonium)] | 2 µM | >250 µM | 250 µM | 1 µM | 16 µM | 2 µM | 250 µM |
| CCCCCCCCCC[P+](CC[P+](CCCCCCCCCC)(c1ccccc1)c1ccccc1)(CC[P+](CCCCCCCCCC)(c1ccccc1)c1ccccc1)c1ccccc1 [P2P2P-10,10,10, ((decyl(phenyl)phosphoniodiyl)bis(ethane-2,1-diyl))bis(decyldiphenylphosphonium)] | 8 µM | >250 µM | 32 µM | 2 µM | 2 µM | 2 µM | 250 µM |
| CCCCCCCCCCC[P+](CC[P+](CCCCCCCCCCC)(c1ccccc1)c1ccccc1)(CC[P+](CCCCCCCCCCC)(c1ccccc1)c1ccccc1)c1ccccc1 [P2P2P-11,11,11, ((phenyl(undecyl)phosphoniodiyl)bis(ethane-2,1-diyl))bis(diphenyl(undecyl)phosphonium)] | 4 µM | >250 µM | 63 µM | 4 µM | 1 µM | 2 µM | 63 µM |
